≈ marks a conversion by molar mass, not a printed value. Read-outs that look alike come from different tables or passages of the source.
Experiments:
[1] = CUPRAC assay; settings: pH 7.0, 450 nm
Procedure: Cupric reducing antioxidant capacity (CUPRAC) assay was performed according to the method by Apak et al.[20] with slight modifications. The CUPRAC reagent was prepared by mixing equal volume of CuCl2 (10 mM), neocuproine solution (7.5 mM), and acetate buffer (pH = 7.0). Subsequently, 50 µl of TP-10, TP-315, TP-427 (0.002–0.4 mg/ml) and 150 µl of CUPRAC reagent were pipetted into each well of 96-well plate (Nunc, Roskilde, Denmark). After pipetting, the plate was shaken for 5 min and then incubated for 25 min in the dark at room temperature. The absorbance of the solutions was read at 450 nm using a microplate reader (Epoch, BioTek Instruments, Inc., Winooski, VT, USA). At least six tests were performed for each concentration of the investigated compounds. The results were expressed as the IC50 (µg/ml) ± SD.

[2] = test system: U-87 MG cells; test: Cell viability, MTT assay; assay type: cell-based, human; settings: 10 µg/ml, 24 h
Procedure: Viability of glioblastoma cells U-87 MG (ATCC HTB-14) exposed to a fixed dose of 10 µg/ml of TP-10, TP-315, and TP-427 was measured using MTT assay. Stock solutions of the investigated compounds in DMSO were prepared in the concentration of 50 mg/ml. The cells were cultured at 37 °C in a 5% CO2 atmosphere using Eagle’s Minimum Essential Medium (EMEM) supplemented with 10% foetal bovine serum (FBS), 100 U/ml of penicillin, and […] of streptomycin. Suspension of U-87 MG cells at a density of 1 × 10^5 cells/ml was placed in 96-well plate (100 µl in each well) and incubated for 24 h. On the day of the experiment, the medium was removed from wells and replaced with medium containing a fixed concentration (10 µg/ml) of the respective 1,2,4-triazole derivative. After 24 h of incubation, 15 µl of MTT solution (5 mg/mL in PBS) was added to each well and the microplates were incubated for the next 3 h. Crystals of formazan formed in the metabolically active cells were solubilised with 10% SDS solution (100 µl) during overnight incubation and then the absorbance of dissolved formazan was measured at λ = 570 nm using a microplate reader (Epoch, BioTek Instruments, Inc., Winooski, VT, USA). The viability of cells treated with TP-10, TP-315, or TP-427 was expressed as the % of the viability of control cells (i.e. cells incubated without respective compounds). The experiments were run in triplicate and repeated three times. Sample observations and image capturing were performed using Olympus CKX53 microscope coupled with XM10 digital camera (Olympus).

[3] = biological target: T1, hCA I (Homo sapiens, UniProt P00915); test: Carbonic anhydrase inhibition, stopped flow CO2 hydration; assay type: biochemical; settings: 1 h incubation
T1 construct: made in house
T1 sequence (P00915 whole entry): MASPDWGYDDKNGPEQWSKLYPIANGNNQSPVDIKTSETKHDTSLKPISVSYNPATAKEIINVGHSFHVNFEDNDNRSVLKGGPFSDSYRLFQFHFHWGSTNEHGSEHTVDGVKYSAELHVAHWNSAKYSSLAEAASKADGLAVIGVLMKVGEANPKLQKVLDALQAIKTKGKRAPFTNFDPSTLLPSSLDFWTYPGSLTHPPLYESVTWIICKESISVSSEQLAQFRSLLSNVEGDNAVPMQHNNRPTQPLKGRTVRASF
Procedure: Carbonic anhydrase catalysed CO2 hydration activity was measured using an Applied Photophysics stopped-flow spectrometer. […] The uncatalyzed rates were determined in the same manner and subtracted from the total observed rates. Stock solutions of inhibitor (0.1 mM) were prepared in distilled-deionized water and dilutions up to 0.01 nM were done thereafter with the assay buffer. […] The inhibition constants were obtained by non-linear least-squares methods using PRISM 3 and the Cheng–Prusoff equation and represent the mean from at least three different determinations. All CA isoforms were recombinant ones obtained in-house[21]^,[22].

[4] = test system: generalised tonic-clonic seizures (MES test); parameters: method as in PMID 30594731, PMID 23291122, PMID 25226229, PMID 25090118; settings: Figure 1, cited from earlier work; for ED50: MES test
[5] = test system: HEK-293; parameters: method as in PMID 30594731, PMID 28824309; settings: 10 µg/ml; cited from earlier work
[6] = test system: HepG2; parameters: method as in PMID 30594731, PMID 28824309; settings: 10 µg/ml; cited from earlier work
[7] = test system: motor coordination; settings: cited from earlier work; for TD50 ± SEM: chimney test

SMILES	IC50 ± SD, CUPRAC [1] [µg/mL]	Relative viability vs. untreated cells [2] [%]	Ki [3] [nM]	interaction with VPA [4]	ED50 [4] [mg/kg]	toxicity for HEK-293 cells [5]	toxicity for HepG2 cells [6]	TD50 ([7]; Figure 1, pretreatment time not given) [mg/kg]	TD50 ± SEM ([7]; pretreatment time 15 min) [mg/kg]	TD50 ± SEM ([7]; pretreatment time 30 min) [mg/kg]
Cc1ccc(-n2c(-c3cccc(Cl)c3)n[nH]c2=S)cc1 [TP-10, 5-(3-chlorophenyl)-4-(4-methylphenyl)-2,4-dihydro-3H-1,2,4-triazole-3-thione]	16.04 ± 0.61 (≈ 53.1 µM)	99.16 ± 3.92	2190	synergism with VPA	57.0					
CCCCCCn1c(-c2cccc(Cl)c2)n[nH]c1=S [TP-315, 5-(3-chlorophenyl)-4-hexyl-2,4-dihydro-3H-1,2,4-triazole-3-thione]	22.28 ± 1.03 (≈ 75.3 µM)	98.82 ± 2.84			47.6	non-toxic	non-toxic			
CCCCCCn1c(Cc2cccc(Cl)c2)n[nH]c1=S [TP-427, 5-(3-chlorobenzyl)-4-hexyl-2,4-dihydro-3H-1,2,4-triazole-3-thione]	30.92 ± 1.11 (≈ 99.8 µM)	98.53 ± 4.18	> 100000	synergism with VPA	72.1	non-toxic	non-toxic	> 1000	>1000	>1000

— article PMC7178883, “1,2,4-Triazole-based anticonvulsant agents with additional ROS scavenging activity are effective in a model of pharmacoresistant epilepsy” (Journal of Enzyme Inhibition and Medicinal Chemistry, 2020)
